Measurements taken from patent US20240327408A1, “COMPOUNDS CONTAINING TETRAHYDRONAPHTHYRIDINONE OR TETRAHYDROPYRIDOPYRIMIDINONE SKELETON, PREPARATION METHOD THEREFOR AND PHARMACEUTICAL USE THEREOF” (CHINA PHARMACEUTICAL UNIVERSITY, priority 2021, published 2024).

Columns and labels:
hClpP = target: T1, hClpP (Homo sapiens, UniProt Q16740); assay: activating ClpP hydrolysis of FITC-casein (fluorescence kinetic detection); format: biochemical; conditions: hClpP 1 μM, FITC-Casein 4 μM, 37° C.
T1 construct: made in house
Experimental: The specific procedures were as follows:
Test compounds were each prepared into a 100 mM stock solution in DMSO and stored. and 1 μL of stock solution of each of the compounds was taken and diluted to 10 mM by adding 9 μL of DMSO for later use.
The compounds of formula I of the present invention were each diluted at concentrations of 200 μM, 50 μM, 10 μM, 2 μM, 500 nM, 100 nM, 20 nM, and 2 nM in an assay buffer. 50 μL of each of the compounds at different concentrations was added to each well, with 2 replicate wells.
The protein was diluted to 4 μM in an assay buffer. 25 μL of protein was added to each well, and incubated at 37° C. for 30 min. The final concentration was 1 μM.
25 μL of FITC-Casein was added to each well. The final concentration was 4 μM. The mixture was immediately loaded on the machine for detection.
FITC-Casein and FITC-Casein+ClpP were used as negative controls.
The detection temperature was 37° C. The plate was shaken for 3 s. […] Kinetic parameters were set, and scanning was performed once every 1 min for 15 min.

MV4; 11 cells = assay: inhibiting the growth of MV4; 11 cells; format: cell-based; conditions: Homo sapiens

T1 sequence (Q16740 57-277): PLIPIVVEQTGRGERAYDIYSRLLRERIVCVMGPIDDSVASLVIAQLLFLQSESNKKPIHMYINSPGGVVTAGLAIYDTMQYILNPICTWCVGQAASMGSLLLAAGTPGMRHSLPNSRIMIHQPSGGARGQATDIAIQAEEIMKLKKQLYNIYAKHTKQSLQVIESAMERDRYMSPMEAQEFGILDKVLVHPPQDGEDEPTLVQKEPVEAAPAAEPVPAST

O=c1c2c(c3scnc3n1Cc1ccc(C(F)(F)F)cc1)CCN(Cc1ccccc1)C2 [Compound I-105, 7-benzyl-4-(4-trifluoromethylbenzyl)-6,7,8,9-tetrahydrothiazolo[4,5-C][2,7]naphthyridine-5(4H)-one]
EC50 (hClpP): 1 to 10 µM | IC50 (MV4; 11 cells): 1 to 10 µM

O=c1c2c(c3cccnc3n1Cc1ccccc1Cl)CCN(Cc1ccccc1)C2 [Compound I-41, 3-benzyl-6-(2-chlorobenzyl)-2,3,4,6-tetrahydropyrido[3,4-c][1,8]naphthyridine-5-(1H)-one]
EC50 (hClpP): 1 to 10 µM | IC50 (MV4; 11 cells): < 1 µM

O=c1c2c(c3cccnc3n1Cc1ccc(Cl)cc1)CCN(Cc1cccc(Cl)c1)C2 [Compound I-75, 3-(3-chlorobenzyl)-6-(4-chlorobenzyl)-2,3,4,6-tetrahydropyrido[3,4-c][1,8]naphthyridine-5-(1H)-one]
EC50 (hClpP): < 1 µM | IC50 (MV4; 11 cells): < 1 µM

COc1ccccc1Cn1c(=O)c2c(c3cccnc31)CCN(Cc1ccccc1)C2 [Compound I-45, 3-benzyl-6-(2-methoxybenzyl)-2,3,4,6-tetrahydropyrido[3,4-c][1,8]naphthyridine-5-(1H)-one]
EC50 (hClpP): 1 to 10 µM | IC50 (MV4; 11 cells): < 1 µM

CCc1ccccc1CN1CCc2c(c(=O)n(Cc3ccccc3)c3ncccc23)C1 [Compound I-10, 6-benzyl-3-(2-ethylbenzyl)-2,3,4,6-tetrahydropyrido[3,4-c][1,8]naphthyridine-5-(1H)-one]
EC50 (hClpP): 1 to 10 µM | IC50 (MV4; 11 cells): < 1 µM

O=c1c2c(n3ncnc3n1Cc1ccc(C(F)(F)F)cc1)CCN(Cc1ccccc1)C2 [Compound I-149, 4-(4-trifluoromethylbenzyl)-7-benzyl-6,7,8,9-tetrahydropyrido[3,4-e][1,2,4]triazolo[1,5-a]pyrimidine-5(4H)-one]
EC50 (hClpP): 1 to 10 µM | IC50 (MV4; 11 cells): 1 to 10 µM

O=c1c2c(n3cccc3n1Cc1ccc(Cl)cc1)CCN(Cc1cccc(Cl)c1)C2 [Compound I-169, 3-(3-chlorobenzyl)-6-(4-chlorobenzyl)-1,2,3,4-tetrahydropyrido[3,4-e]pyrrolo[1,2-a]pyrimidine-5(6H)-one]
EC50 (hClpP): < 1 µM | IC50 (MV4; 11 cells): < 1 µM

Cc1cccc(CN2CCc3c(c(=O)n(Cc4ccc(F)cc4)c4nccn34)C2)c1 [Compound I-115, 7-(3-methylbenzyl)-4-(4-fluorobenzyl)-6,7,8,9-tetrahydroimidazo[1,2-a]pyrido[3,4-e]pyrimidine-5(4H)-one]
EC50 (hClpP): < 1 µM | IC50 (MV4; 11 cells): < 1 µM

O=c1c2c(c3ccsc3n1Cc1ccc(C(F)(F)F)cc1)CCN(Cc1ccccc1)C2 [Compound I-104, 7-benzyl-4-(4-trifluoromethylbenzyl)-6,7,8,9-tetrahydrothieno[2,3-C][2,7]naphthyridine-5(4H)-one]
EC50 (hClpP): < 1 µM | IC50 (MV4; 11 cells): < 1 µM

CNc1ccc(Cn2c(=O)c3c(c4cccnc42)CCN(Cc2cccc(C#N)c2)C3)cc1 [Compound I-89, 6-(4-methylaminobenzyl)-3-(3-cyanobenzyl)-2,3,4,6-tetrahydropyrido[3,4-c][1,8]naphthyridine-5-(1H)-one]
EC50 (hClpP): 1 to 10 µM | IC50 (MV4; 11 cells): 1 to 10 µM

O=c1c2c(c3cccnc3n1Cc1ccccc1)CCN(CC1CC1)C2 [Compound I-1, 6-benzyl-3-(cyclopropylmethyl)-2,3,4,6-tetrahydropyrido[3,4-c][1,8]naphthyridine-5-(1H)-one]
EC50 (hClpP): 10 to 100 µM | IC50 (MV4; 11 cells): 1 to 10 µM

Cn1ccnc1Cn1c(=O)c2c(c3cccnc31)CCN(Cc1ccccc1)C2 [Compound I-65, 3-benzyl-6-((1-methyl-1H-imidazol-2-yl)methyl)-2,3,4,6-tetrahydropyrido[3,4-c][1,8]naphthyridine-5-(1H)-one]
EC50 (hClpP): 10 to 100 µM | IC50 (MV4; 11 cells): 1 to 10 µM

O=c1c2c(n3ccnc3n1Cc1ccc(F)cc1F)CCN(Cc1ccccc1)C2 [Compound I-122, 7-benzyl-4-(2,4-difluorobenzyl)-6,7,8,9-tetrahydroimidazo[1,2-a]pyrido[3,4-e]pyrimidine-5(4H)-one]
EC50 (hClpP): < 1 µM | IC50 (MV4; 11 cells): < 1 µM

O=c1c2c(c3cccnc3n1CC1CC1)CCN(Cc1ccccc1)C2 [Compound I-36, 3-benzyl-6-(cyclopropylmethyl)-2,3,4,6-tetrahydropyrido[3,4-c][1,8]naphthyridine-5-(1H)-one]
EC50 (hClpP): 10 to 100 µM | IC50 (MV4; 11 cells): 1 to 10 µM

Cc1ccc(Cn2c(=O)c3c(c4cccnc42)CCN(Cc2cccc(F)c2)C3)cc1 [Compound I-93, 6-(4-methylbenzyl)-3-(3-fluorobenzyl)-2,3,4,6-tetrahydropyrido[3,4-c][1,8]naphthyridine-5-(1H)-one]
EC50 (hClpP): < 1 µM | IC50 (MV4; 11 cells): < 1 µM

Cc1cccc(CN2CCc3c(c(=O)n(Cc4ccccc4)c4ccnn34)C2)c1 [Compound I-158, 4-benzyl-7-(3-methylbenzyl)-6,7,8,9-tetrahydropyrazolo[1,5-a]pyrido[3,4-e]pyrimidine-5(4H)-one]
EC50 (hClpP): 1 to 10 µM | IC50 (MV4; 11 cells): 1 to 10 µM

CCc1ccc(Cn2c(=O)c3c(c4cccnc42)CCN(Cc2cccc(C#N)c2)C3)cc1 [Compound I-94, 6-(4-ethylbenzyl)-3-(3-cyanobenzyl)-2,3,4,6-tetrahydropyrido[3,4-c][1,8]naphthyridine-5-(1H)-one]
EC50 (hClpP): < 1 µM | IC50 (MV4; 11 cells): < 1 µM

O=c1c2c(c3cccnc3n1Cc1cccc(Cl)c1)CCN(Cc1ccccc1)C2 [Compound I-47, 3-benzyl-6-(3-chlorobenzyl)-2,3,4,6-tetrahydropyrido[3,4-c][1,8]naphthyridine-5-(1H)-one]
EC50 (hClpP): < 1 µM | IC50 (MV4; 11 cells): < 1 µM

O=c1c2c(n3cncc3n1Cc1ccc(C(F)(F)F)cc1)CCN(Cc1ccccc1)C2 [Compound I-164, 7-benzyl-4-(4-trifluoromethylbenzyl)-6,7,8,9-tetrahydroimidazo[1,5-a]pyrido[3,4-e]pyrimidine-5(4H)-one]
EC50 (hClpP): 1 to 10 µM | IC50 (MV4; 11 cells): 1 to 10 µM

O=c1c2c(n3ccnc3n1Cc1ccc(C(F)(F)F)cc1)CCN(Cc1cccc(F)c1)C2 [Compound I-128, 7-(3-fluorobenzyl)-4-(4-trifluoromethylbenzyl)-6,7,8,9-tetrahydroimidazo[1,2-a]pyrido[3,4-e]pyrimidine-5(4H)-one]
EC50 (hClpP): < 1 µM | IC50 (MV4; 11 cells): < 1 µM

O=c1c2c(c3cccnc3n1Cc1ccccc1Br)CCN(Cc1ccccc1)C2 [Compound I-42, 3-benzyl-6-(2-bromobenzyl)-2,3,4,6-tetrahydropyrido[3,4-c][1,8]naphthyridine-5-(1H)-one]
EC50 (hClpP): 1 to 10 µM | IC50 (MV4; 11 cells): < 1 µM

N#Cc1cccc(CN2CCc3c(c(=O)n(Cc4ccc(Cl)cc4)c4ncnn34)C2)c1 [Compound I-155, 4-(4-chlorobenzyl)-7-(3-cyanobenzyl)-6,7,8,9-tetrahydropyrido[3,4-e][1,2,4]triazolo[1,5-a]pyrimidine-5(4H)-one]
EC50 (hClpP): 1 to 10 µM | IC50 (MV4; 11 cells): 1 to 10 µM

O=c1c2c(n3ncnc3n1Cc1ccc(Cl)cc1)CCN(Cc1ccccc1)C2 [Compound I-152, 4-(4-chlorobenzyl)-7-benzyl-6,7,8,9-tetrahydropyrido[3,4-e][1,2,4]triazolo[1,5-a]pyrimidine-5(4H)-one]
EC50 (hClpP): 1 to 10 µM | IC50 (MV4; 11 cells): 1 to 10 µM

O=c1c2c(n3ccnc3n1Cc1ccc(C(F)(F)F)cc1)CCN(Cc1cccc(Cl)c1)C2 [Compound I-129, 7-(3-chlorobenzyl)-4-(4-trifluoromethylbenzyl)-6,7,8,9-tetrahydroimidazo[1,2-a]pyrido[3,4-e]pyrimidine-5(4H)-one]
IC50 (MV4; 11 cells): < 1 µM
